{"source": "patent US20240423981A1", "about": "“TREATMENT OF HCM WITH PYRIMIDINEDIONE COMPOUNDS” (MyoKardia, Inc., priority 2017, published 2024)", "key": {"healthy men": {"system": "healthy men", "test": "Study Compound 1-002: single ascending-dose (SAD) trial in healthy volunteers", "type": "in vivo, human", "experimental": "(§1) Three clinical studies have investigated the safety and tolerability of Compound 1 to date; conduct of 2 studies has completed and 1 study is ongoing. A double-blind, placebo-controlled, single ascending-dose study (SAD) (Compound 1-002) was conducted in healthy men. Subjects received single doses ranging from 1 mg to 48 mg. Conduct of an open-label sequential-group SAD study in subjects with clinically stable HCM (Compound 1-001) is also complete; single doses of up to 144 mg were administered. In addition, a double-blind, placebo-controlled, multiple ascending-dose (MAD) study (Compound 1-003) is being conducted in which healthy adult subjects have received multiple doses of Compound 1 up to 25 mg once daily (QD) for up to 28 days.\n(§2) In Study Compound 1-002, single doses from 1 mg to 48 mg were administered as an oral suspension to healthy men. […] Single doses of ≥12 mg of Compound 1 were associated with detectable reductions in LV contractility from baseline as assessed by 3 independent echocardiographic measures (left ventricular ejection fraction [LVEF], LV fractional shortening (LVFS), and LVOT velocity time integral [VTI]). At the highest dose studied in healthy subjects (48 mg), mean reduction in LVEF at any time point was −6% relative to baseline."}, "healthy adult subjects": {"system": "healthy adult subjects", "test": "Study Compound 1-003: multiple ascending-dose (MAD) trial in healthy volunteers", "type": "in vivo, human", "experimental": "as §1\nIn Study Compound 1-003, 4 cohorts of healthy adult subjects have been dosed, each scheduled to dose for 28 days. […] In cohort 3, 3 of 12 subjects who received blinded treatment (either Compound 1 12.5 mg or placebo QD) had diarrhea and/or abdominal cramps. One of these subjects was discontinued due to recurrence of diarrhea upon rechallenge, and the other 2 subjects were successfully restarted on study medication. The investigator considered these gastrointestinal AEs either mild or moderate in severity and likely related to study medication.\nDosing in cohort 4 was stopped on Day 25 by the investigator, because 5 of 12 subjects who received blinded treatment (either Compound 1 25 mg or placebo QD) achieved the predefined stopping criterion for dose ascension of ≥20% reduction in LVEF. All subjects remained asymptomatic."}, "[1]": {"test": "Pre-clinical acute or chronic administration, haemodynamics", "type": "in vivo"}, "[2]": {"test": "Parts A and B of the phase 2 trial (PIONEER), pooled findings", "type": "in vivo, human", "conditions": "human, plasma, oral; read-out: concentrations associated with excessive pharmacological effect", "from_the_text": "(§3) This is a phase 2 open-label pilot study to evaluate the efficacy, PK, PD, safety, and tolerability of Compound 1 in subjects with symptomatic HCM and LVOT obstruction. Approximately 10 adult subjects with symptomatic HCM, a resting LVOT gradient ≥30 mm Hg, and post-exercise peak LVOT gradient ≥50 mm Hg will be enrolled. The study will have a 12-week treatment phase and a 4-week washout phase (FIG. 3).\n(§4) This trial was similar to the trial described in Example 3, but will have several important differences. For example, subjects in the Phase 2-B trial will not be required to discontinue their β-blocker therapy, and the dose of Compound 1 will be reduced to 2 to 5 mg.\n(§5) Compound 1 concentrations were measured in human plasma using high pressure liquid chromatography (HPLC) coupled with tandem mass spectrometry (MS/MS). This method was used for Compound 1 bioanalysis in all clinical trials to date, and all clinical data has been collected using plasma. A brief description of the method follows.\n(§6) Liquid-liquid extraction and HPLC/MS/MS was used to determine the concentration of Compound 1 in human plasma. An aliquot of the extract was injected onto an HPLC instrument that is coupled with a triple quadrupole mass spectrometer (Sciex API5500). A Lux 3u Cellulose-4 HPLC column (150×2.0 mm) from […], was used to separate Compound 1, from interfering compounds that may be present in the sample extract. The internal standard was a multi-deuterated analog of Compound 1 to ensure that the internal standard used in the assay had similar chemical properties to the analyte but a different mass for selective detection. The peak area of the product ion of Compound 1 was measured against the peak area of the product ion of the internal standard for determination of concentration."}, "[3]": {"system": "obstructive HCM (oHCM) patients", "test": "Parts A and B of the phase 2 trial (PIONEER), pooled findings", "type": "in vivo, human", "from_the_text": "as §3, §4, §5, §6"}, "[4]": {"test": "Pharmacokinetics in Study Compound 1-002", "type": "in vivo", "conditions": "single oral doses, healthy men", "experimental": "as §2, §5\nLiquid-liquid extraction and HPLC/MS/MS was used to determine the concentration of Compound 1 in human plasma. An aliquot of the extract was injected onto an HPLC instrument that is coupled with a triple quadrupole mass spectrometer (Sciex API5500). […] The peak area of the product ion of Compound 1 was measured against the peak area of the product ion of the internal standard for determination of concentration."}, "healthy volunteers": {"system": "healthy volunteers", "test": "Adverse events in healthy volunteers of the Phase 1 trials", "type": "in vivo, human", "experimental": "as §1"}, "[5]": {"conditions": "12.5 mg cohort, 28-day treatment"}, "[6]": {"conditions": "25 mg cohort treated for 25 days"}}, "data": [{"smiles": "CC(C)n1c(=O)cc(N[C@@H](C)c2ccccc2)[nH]c1=O", "note": "[Compound 1, (S)-3-Isopropyl-6-((1-phenylethyl)amino) pyrimidine-2, 4(1H,3H)-dione]", "values": [{"measurement": "Responders %", "setting": "healthy men; 12 mg single dose cohort", "result": 50, "unit": "%"}, {"measurement": "Responders n", "setting": "healthy men; 12 mg single dose cohort", "result": "3/6"}, {"measurement": "Responders %", "setting": "healthy men; 24 mg single dose cohort", "result": 83, "unit": "%"}, {"measurement": "Responders n", "setting": "healthy men; 24 mg single dose cohort", "result": "5/6"}, {"measurement": "Responders %", "setting": "healthy men; 48 mg single dose cohort", "result": 100, "unit": "%"}, {"measurement": "Responders n", "setting": "healthy men; 48 mg single dose cohort", "result": "6/6"}, {"measurement": "mean reduction in LVEF at any time point relative to baseline", "setting": "healthy men; 48 mg single dose, healthy subjects", "result": "−6", "unit": "%"}, {"measurement": "single dose associated with detectable reductions in LV contractility from baseline", "setting": "healthy men; 3 echocardiographic measures (LVEF, LVFS, LVOT VTI), healthy men", "result": "≥ 12", "unit": "mg"}, {"measurement": "changes in systolic blood pressure or heart rate", "setting": "healthy men; any dose level 1 mg to 48 mg", "result": "No changes in systolic blood pressure (BP) or heart rate (HR) were detected"}, {"measurement": "incidence of treatment-emergent AEs versus dose", "setting": "healthy men; single doses 1 mg to 48 mg", "result": "did not appear to increase with dose"}, {"measurement": "tolerability", "setting": "healthy men; single doses 1 mg to 48 mg, oral suspension, healthy men", "result": "well tolerated, with no serious adverse events (SAEs), deaths, or withdrawals from study due to adverse events (AEs) reported"}, {"measurement": "PD evidence of reduced contractility", "setting": "healthy adult subjects; 12.5 mg QD and 25 mg QD groups", "result": "PD evidence of reduced contractility was apparent"}, {"measurement": "Responders %", "setting": "healthy adult subjects; [5]", "result": 30, "unit": "%"}, {"measurement": "Responders n", "setting": "healthy adult subjects; [5]", "result": "3/10"}, {"measurement": "Responders n", "setting": "healthy adult subjects; 18.5 mg cohort, 28-day treatment", "result": "10/10"}, {"measurement": "Responders %", "setting": "healthy adult subjects; [6]", "result": 100, "unit": "%"}, {"measurement": "Responders n", "setting": "healthy adult subjects; [6]", "result": "10/10"}, {"measurement": "Responders %", "setting": "healthy adult subjects; 25 mg cohort, 28-day treatment", "result": 100, "unit": "%"}, {"measurement": "subjects with diarrhea and/or abdominal cramps", "setting": "healthy adult subjects; cohort 3, blinded treatment (Compound 1 12.5 mg or placebo QD)", "result": "3 of 12"}, {"measurement": "gastrointestinal AEs", "setting": "healthy adult subjects; cohort 4 (Compound 1 25 mg or placebo)", "result": "No gastrointestinal AEs were reported"}, {"measurement": "subjects achieving stopping criterion of ≥20% reduction in LVEF", "setting": "healthy adult subjects; cohort 4, blinded treatment (Compound 1 25 mg or placebo QD), dosing stopped on Day 25", "result": "5 of 12"}, {"measurement": "AE severity and SAEs", "setting": "healthy adult subjects; multiple doses up to 25 mg QD", "result": "All AEs were mild or moderate in severity, and there were no SAEs"}, {"measurement": "tolerability", "setting": "healthy adult subjects; multiple doses up to 25 mg QD, healthy adults", "result": "well tolerated"}, {"measurement": "myocardial contractility, LV end-diastolic dimensions, blood pressure", "setting": "[1]; acute or chronic administration", "result": "decreased myocardial contractility and increased LV end-diastolic dimensions while preserving systemic arterial blood pressure and, LV end-diastolic pressure"}, {"measurement": "end-diastolic pressures and end-diastolic stiffness", "setting": "[1]; versus acute effects of other negative inotropes", "result": "preserves end-diastolic pressures as well as the estimated (linear) end-diastolic stiffness despite marked increases in preload (EDV)"}, {"measurement": "concentration at 12 weeks", "setting": "[2]", "result": "> 1000", "unit": "ng/mL"}, {"measurement": "effects accompanying the gradient reduction", "setting": "[3]; Parts A and B", "result": "improvement in symptoms, pVO2 during exercise, a decrease in NT pro-BNP and improvement in echocardiographic measures of diastolic function"}, {"measurement": "diastolic function", "setting": "[3]; Parts A and B, Tables 9 and 10", "result": "diastolic improvement"}, {"measurement": "tolerability of the therapeutic concentration range", "setting": "[3]; associated with limited decrease in LVEF", "result": "well tolerate"}, {"measurement": "compliance of the left ventricle", "setting": "[3]; increase in LVEDV with reduction in LV filling pressure (E/e′), emerging data, Cohorts A and B", "result": "improving compliance of the left ventricle"}, {"measurement": "LVEF maintained with clinical improvement in oHCM (symptom improvement and peak VO2)", "setting": "[3]; plasma concentrations of 350 to 700 ng/mL", "result": "≥ 55", "unit": "%"}, {"measurement": "LVOT gradient level reached", "setting": "[3]; plasma concentrations of 350 to 700 ng/mL, generally", "result": "< 30", "unit": "mm Hg"}, {"measurement": "half-life", "setting": "[4]; male, human, plasma, read-out: mean elimination half-life (converted)", "result": "~192", "unit": "h"}, {"measurement": "pharmacokinetic (PK) profile", "setting": "[4]", "result": "rapid absorption and subsequent distribution followed by a long elimination phase"}, {"measurement": "SAEs", "setting": "healthy volunteers", "result": "No SAEs reported"}, {"measurement": "severity of adverse events", "setting": "healthy volunteers", "result": "all mild to moderate"}, {"measurement": "number of AEs reported", "setting": "healthy volunteers; in 33 subjects", "result": 54}]}]}
